From patent US20240041042A1, “1-(PYRIDYL)-5-AZINYLPYRAZOLE DERIVATIVES, AND THEIR USE FOR CONTROL OF UNDESIRED PLANT GROWTH” (Bayer Aktiengesellschaft, priority 2020, published 2024)
Where two headings read alike, the source gives them in different places.

Key:
Assay type in all cases: in vivo
Lolium rigidum (LOLRI) [1] = experiment: Pre-emergence herbicidal action against LOLRI; conditions: dosage 320 g/ha
Summary of the method: (§1)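 Application rates ran to 320 g/ha or lower, with several dosages tested on the same weeds. The compound, as wettable powder or emulsion concentrate, is sprayed pre-emergence onto soil over sown seeds; greenhouse growth follows, and effect is rated visually after roughly 3 weeks.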

Setaria viridis (SETVI) [2] = experiment: Pre-emergence herbicidal action against SETVI; conditions: dosage 320 g/ha
Summary of the method: as §1

[3] = test system: Amaranthus retroflexus (AMARE); experiment: Post-emergence herbicidal action against AMARE
Summary of the method: (§2)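 Doses of 320 g/ha or lower, suffixes a, b and c marking different dosages, were applied post-emergence at the one-leaf stage in 600 l/ha water with 0.5% additive. Damage was assessed visually after about 3 weeks in the greenhouse.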

[4] = test system: Alopecurus myosuroides (ALOMY); experiment: Post-emergence herbicidal action against ALOMY; conditions: visual rating about 3 weeks after treatment vs untreated controls (100% = plants have died, 0% = like control plants)
Summary of the method: as §2

Brassica napus (BRSNW) = conditions: 80 g/ha, crop plant compatibility, in comparison to untreated controls
Summary of the method: (§3)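 Crop injury rated visually in percent against untreated plants roughly 3 weeks after treatment (0% no effect, 100% plants dead). Compounds, as WP or EC with 0.5% additive in 600 l/ha water, were applied to the covering soil right after sowing; greenhouse growth. Suffixes a, b, c denote different dosages.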

Glycine max (GLXMA) = conditions: pre-emergence, crop plant compatibility, in comparison to untreated controls
Summary of the method: as §3

Zea mays (ZEAMX) [5] = conditions: pre-emergence, crop plant compatibility, in comparison to untreated controls
Summary of the method: as §3

Oryza sativa (ORYSA) [6] = conditions: pre-emergence, crop plant compatibility, in comparison to untreated controls
Summary of the method: as §3

[7] = test system: Triticum aestivum (TRZAS); conditions: pre-emergence, crop plant compatibility, in comparison to untreated controls
Summary of the method: as §3

Zea mays (ZEAMX) [8] = conditions: for Post-emergence action against ZEAMX in %: crop plant compatibility, 80 g/ha, effect vs untreated controls
Summary of the method: (§4)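 Greenhouse crops in sandy loam sprayed post-emergence at the one-leaf stage, 2–3 weeks after sowing, with WP or EC formulations in water plus 0.5% additive at 600 l/ha. Damage rated visually about 3 weeks later versus untreated controls (0% = like control, 100% = dead); suffixes a–c denote different doses.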

Oryza sativa (ORYSA) [9] = conditions: crop plant compatibility
Summary of the method: as §4

[10] = test system: Triticum aestivum (TRZAS); conditions: crop plant compatibility, effect vs untreated controls
Summary of the method: as §4

[11] = test system: Alopecurus myosuroides (ALOMY); experiment: Pre-emergence herbicidal action against ALOMY; conditions: 320 g/ha; scored visually after about 3 weeks; 100% = plants have died
Summary of the method: as §1

Avena fatua (AVEFA) [12] = experiment: Pre-emergence herbicidal action against AVEFA; conditions: 320 g/ha, visual scoring after about 3 weeks vs untreated controls
Summary of the method: as §1

Setaria viridis (SETVI) [13] = experiment: Post-emergence herbicidal action against SETVI
Summary of the method: as §2

Viola tricolor (VIOTR) [14] = experiment: Pre-emergence herbicidal action against VIOTR
Summary of the method: as §1

Viola tricolor (VIOTR) [15] = experiment: Post-emergence herbicidal action against VIOTR
Summary of the method: as §2

[16] = test system: Matricaria inodora (MATIN); experiment: Pre-emergence herbicidal action against MATIN; conditions: dosage 320 g/ha
Summary of the method: as §1

[17] = test system: Amaranthus retroflexus (AMARE); experiment: Pre-emergence herbicidal action against AMARE; conditions: visual scoring after about 3 weeks vs untreated controls
Summary of the method: as §1

Avena fatua (AVEFA) [18] = experiment: Post-emergence herbicidal action against AVEFA; conditions: visual rating about 3 weeks after treatment
Summary of the method: as §2

[19] = test system: Pharbitis purpurea (PHBPU); experiment: Post-emergence herbicidal action against PHBPU
Summary of the method: as §2

[20] = test system: Abutilon theophrasti (ABUTH); experiment: Post-emergence herbicidal action against ABUTH; conditions: 320 g/ha, visual rating about 3 weeks after treatment vs untreated controls (100% = plants have died, 0% = like control plants)
Summary of the method: as §2

[21] = test system: Echinochloa crus-galli (ECHCG); experiment: Pre-emergence herbicidal action against ECHCG; conditions: dosage 320 g/ha
Summary of the method: as §1

Lolium rigidum (LOLRI) [22] = experiment: Post-emergence herbicidal action against LOLRI; conditions: dosage 320 g/ha
Summary of the method: as §2

[23] = test system: Matricaria inodora (MATIN); experiment: Post-emergence herbicidal action against MATIN; conditions: dosage 320 g/ha
Summary of the method: as §2

[24] = test system: Digitaria sanguinalis (DIGSA); experiment: Pre-emergence herbicidal action against DIGSA; conditions: dosage 320 g/ha
Summary of the method: as §1

[25] = test system: Verconica persica (VERPE); experiment: Pre-emergence herbicidal action against VERPE; conditions: dosage 320 g/ha
Summary of the method: as §1

[26] = 80 g/ha, visual rating about 3 weeks after treatment vs untreated controls (100% = plants have died, 0% = like control plants)
[27] = 20 g/ha, effect vs untreated controls
[28] = 80 g/ha, effect in comparison to untreated controls
[29] = 320 g/ha, effect in comparison to untreated controls

SMILES | Pre-emergence action against LOLRI in % (Lolium rigidum (LOLRI) [1]) | Pre-emergence action against SETVI in % (Setaria viridis (SETVI) [2]) | Post-emergence action against AMARE in % [3, 26] | Post-emergence action against ALOMY in % ([4]; 80 g/ha) | Pre-emergence action against BRSNW in % (Brassica napus (BRSNW)) | Pre-emergence action against GLXMA in % (Glycine max (GLXMA); 80 g/ha) | Pre-emergence action against ZEAMX in % (Zea mays (ZEAMX) [5]; 80 g/ha) | Pre-emergence action against ORYSA in % (Oryza sativa (ORYSA) [6]; 80 g/ha) | Pre-emergence action against TRZAS in % ([7]; 80 g/ha) | Post-emergence action against ZEAMX in % (Zea mays (ZEAMX) [8]) | Post-emergence action against ORYSA in % (Oryza sativa (ORYSA) [9]; [27]) | Post-emergence action against ORYSA in % (Oryza sativa (ORYSA) [9]; [28]) | Post-emergence action against TRZAS in % ([10]; 20 g/ha) | Pre-emergence action against ALOMY [11] | Pre-emergence action against AVEFA in % (Avena fatua (AVEFA) [12]) | Pre-emergence action against VIOTR in % (Viola tricolor (VIOTR) [14]; 320 g/ha, Viola tricolor) | Post-emergence action against VIOTR in % (Viola tricolor (VIOTR) [15]; 80 g/ha) | Pre-emergence action against AMARE in % ([17]; 320 g/ha) | Post-emergence action against ORYSA in % (Oryza sativa (ORYSA) [9]; [29]) | Post-emergence action against TRZAS in % ([10]; 80 g/ha) | also measured
COC(=O)CCOC(=O)COc1nn(-c2ccccn2)c(-c2cncc(F)c2)c1C1CC1 [Example I-71] | 90% | 100% | 90% | 90% | 0% | 20% | 10% | 10% | 10% | 10% | 10% | 20% | 10% | 90% |  |  |  |  |  |  | Post-emergence action against ZEAMX in % (crop plant compatibility) (Zea mays (ZEAMX) [8]; 20 g/ha, ZEAMX, effect in comparison to untreated controls): 0%
O=C(O)CSc1nn(-c2ccccn2)c(-c2ccc(F)nc2)c1Br [Example I-69] | 80% | 100% |  |  | 20% |  |  | 0% | 0% |  |  | 0% |  |  | 80% | 90% | 80% | 90% | 10% | 0% | Post-emergence action against SETVI in % (Setaria viridis (SETVI) [13]; dosage 80 g/ha): 80%; Post-emergence action against SETVI in % (Setaria viridis (SETVI) [13]; dosage 320 g/ha): 80%; Post-emergence action against AMARE in % ([3]; 320 g/ha, visual rating about 3 weeks after treatment): 80%; Post-emergence action against VIOTR in % (Viola tricolor (VIOTR) [15]; 320 g/ha): 80%; Pre-emergence action against MATIN in % [16]: 90%; Pre-emergence action against AMARE in % ([17]; 80 g/ha): 80%; Post-emergence action against AVEFA in % (Avena fatua (AVEFA) [18]; 80 g/ha): 80%; Post-emergence action against AVEFA in % (Avena fatua (AVEFA) [18]; 320 g/ha): 100%; Post-emergence action against PHBPU in % ([19]; dosage 80 g/ha): 80%; Post-emergence action against PHBPU in % ([19]; dosage 320 g/ha): 80%; Post-emergence action against ALOMY in % ([4]; 320 g/ha): 90%; Post-emergence action against ABUTH in % [20]: 80%; Pre-emergence action against GLXMA in % (Glycine max (GLXMA); 320 g/ha): 20%; Pre-emergence action against ECHCG in % [21]: 90%; Post-emergence action against LOLRI in % (Lolium rigidum (LOLRI) [22]): 80%; Post-emergence action against MATIN in % [23]: 80%
COC(=O)[C@@H](C)Oc1nn(-c2cccnc2F)c(-c2ccc(F)nc2)c1Br [II-36] | 80% | 80% |  |  | 0% | 0% | 20% | 0% |  |  | 0% | 0% |  | 100% | 80% | 100% | 80% | 100% |  |  | Pre-emergence action against VIOTR in % (Viola tricolor (VIOTR) [14]; dosage 80 g/ha): 80%; Pre-emergence action against DIGSA in % [24]: 100%; Pre-emergence action against VERPE in % [25]: 80%
O=C(O)CNC(=O)COc1nn(-c2ccnc(F)c2)c(-c2ccc(F)nc2)c1Br [III-26] |  |  |  |  | 0% | 0% | 0% | 0% | 0% | 20% |  | 10% |  |  |  |  |  |  | 20% | 20% | Pre-emergence action against ZEAMX in % (Zea mays (ZEAMX) [5]; 320 g/ha): 0%; Pre-emergence action against ORYSA in % (Oryza sativa (ORYSA) [6]; 320 g/ha): 0%; Pre-emergence action against TRZAS in % ([7]; 320 g/ha): 20%
O=C(O)COc1nn(-c2ccccn2)c(-c2cncc(F)c2)c1C1CC1 [Example I-72] | 100% | 90% | 80% | 90% | 10% | 0% | 0% | 0% | 10% |  | 10% | 20% | 10% | 100% |  | 90% |  | 90% |  |  | Pre-emergence action against ZEAMX in % (Zea mays (ZEAMX) [5]; 320 g/ha): 0%; Pre-emergence action against ORYSA in % (Oryza sativa (ORYSA) [6]; 320 g/ha): 20%
